Entries after “also recorded” stand apart in the source; their conditions may differ.
T1: TsaN^749−1008 (TcdA domain of TsaN) (Pandoravirus salinus, UniProt A0A291ATS8)
T1 sequence (A0A291ATS8 749-1008): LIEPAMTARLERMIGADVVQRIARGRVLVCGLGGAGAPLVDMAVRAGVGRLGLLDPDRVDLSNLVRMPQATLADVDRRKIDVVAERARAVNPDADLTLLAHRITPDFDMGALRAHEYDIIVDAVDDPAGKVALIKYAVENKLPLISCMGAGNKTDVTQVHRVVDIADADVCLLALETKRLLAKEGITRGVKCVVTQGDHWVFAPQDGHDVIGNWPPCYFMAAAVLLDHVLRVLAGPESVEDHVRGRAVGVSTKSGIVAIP

T2: TsaN^1−392 (TsaD domain of TsaN) (Pandoravirus salinus, UniProt A0A291ATS8)
T2 sequence (A0A291ATS8 1-392): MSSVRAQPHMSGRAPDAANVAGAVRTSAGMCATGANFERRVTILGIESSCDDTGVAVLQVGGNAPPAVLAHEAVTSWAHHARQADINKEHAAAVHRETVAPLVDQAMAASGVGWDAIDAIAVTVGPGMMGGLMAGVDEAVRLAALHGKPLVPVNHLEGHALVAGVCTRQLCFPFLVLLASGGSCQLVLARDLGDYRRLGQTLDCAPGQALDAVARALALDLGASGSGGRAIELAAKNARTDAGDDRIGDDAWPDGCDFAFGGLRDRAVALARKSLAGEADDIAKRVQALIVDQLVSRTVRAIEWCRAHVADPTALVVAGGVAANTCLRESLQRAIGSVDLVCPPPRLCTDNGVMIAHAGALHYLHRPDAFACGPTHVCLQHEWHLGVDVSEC

T3: TsaN (Pandoravirus salinus, UniProt A0A291ATS8)
T3 sequence (A0A291ATS8 1-1008): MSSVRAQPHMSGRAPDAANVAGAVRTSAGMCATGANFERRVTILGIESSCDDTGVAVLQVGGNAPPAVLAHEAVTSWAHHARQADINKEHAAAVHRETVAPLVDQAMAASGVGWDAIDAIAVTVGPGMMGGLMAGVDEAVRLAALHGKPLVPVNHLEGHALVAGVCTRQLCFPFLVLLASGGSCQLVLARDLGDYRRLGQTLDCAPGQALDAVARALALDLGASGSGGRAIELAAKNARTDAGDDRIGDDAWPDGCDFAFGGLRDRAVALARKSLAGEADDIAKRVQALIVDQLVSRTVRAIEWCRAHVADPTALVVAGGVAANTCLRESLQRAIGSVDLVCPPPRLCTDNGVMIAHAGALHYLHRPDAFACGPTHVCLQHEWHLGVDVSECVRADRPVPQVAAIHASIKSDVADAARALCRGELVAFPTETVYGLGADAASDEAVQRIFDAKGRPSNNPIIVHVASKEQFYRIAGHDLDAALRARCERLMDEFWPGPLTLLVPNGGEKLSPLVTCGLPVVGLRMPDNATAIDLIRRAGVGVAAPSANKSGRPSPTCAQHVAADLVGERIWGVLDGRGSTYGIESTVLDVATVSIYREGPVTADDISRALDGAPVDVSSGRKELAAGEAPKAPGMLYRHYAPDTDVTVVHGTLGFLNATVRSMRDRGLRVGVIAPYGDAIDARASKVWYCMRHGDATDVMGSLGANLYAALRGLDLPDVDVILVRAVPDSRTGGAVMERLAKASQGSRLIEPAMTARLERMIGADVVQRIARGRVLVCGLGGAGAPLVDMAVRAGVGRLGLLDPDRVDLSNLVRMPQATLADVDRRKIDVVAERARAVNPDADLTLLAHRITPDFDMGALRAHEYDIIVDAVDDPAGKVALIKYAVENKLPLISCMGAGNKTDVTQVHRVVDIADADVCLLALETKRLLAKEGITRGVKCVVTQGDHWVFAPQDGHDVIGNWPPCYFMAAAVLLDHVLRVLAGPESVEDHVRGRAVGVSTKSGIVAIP

B1: TsaN (Pandoravirus salinus) (protein)
chain: T3 sequence (A0A291ATS8 1-1008)
B2: TsaN^1−392 (Pandoravirus salinus) (protein)
chain: T2 sequence (A0A291ATS8 1-392)

Experiments:
[1] = molecular target: Pandoravirus salinus TsaN (TsaD-TsaC-SUA5-TcdA modular protein), full length (Pandoravirus salinus); experiment: SEC
[2] = molecular target: Pandoravirus salinus TsaN (TsaD-TsaC-SUA5-TcdA modular protein), full length (Pandoravirus salinus); experiment: SEC-MALS
[3] = molecular target: T1, TsaN^749−1008 (TcdA domain of TsaN); experiment: ITC, ligand binding to the TcdA domain; design: species or system P. salinus
[4] = molecular target: T2, TsaN^1−392 (TsaD domain of TsaN); experiment: ITC, nucleotide binding to the TsaD domain; design: species or system P. salinus; settings: for ΔG / ΔH: 30 μM TsaN^1−392 titrated with 360 μM ligand
[5] = molecular target: TsaN^749-1008 (TcdA domain of P. salinus TsaN) (Pandoravirus salinus); experiment: SEC-MALS
TsaN = molecular target: T3, TsaN; experiment: Effect of divalent metal ions on biosynthesis of t^6ADP and t^6ATP; assay type: biochemical, P. salinus; settings: pre-bound metals removed by dialysis with EDTA
TsaN^749−1008 = experiment: Enzymatic assay of ct^6A, LC–MS; assay type: biochemical, P. salinus; settings: for ct^6A formation from synthetic t^6A in the presence of the nucleotide (ct^6A/t^6A): TsaN^749−1008 and synthetic t^6A plus ATP, AMPCPP, AMP or AMP + PPi
TsaN^H155A/H159A = experiment: NADH-coupled ATPase assay; assay type: biochemical, P. salinus; settings: 5 μM TsaN^H155A/H159A
TsaN^(1−392)H155A/H159A = experiment: ITC, ATP binding to the TsaD domain variant; design: species or system P. salinus; settings: 30 μM TsaN^(1−392)H155A/H159A titrated with 360 μM ligand
[6] = substrate: Nc1ncnc2c1ncn2[C@@H]1O[C@H](COP(=O)(O)OP(=O)(O)OP(=O)(O)O)[C@@H](O)[C@H]1O; experiment: NADH-coupled ATPase assay; assay type: biochemical, P. salinus; settings: 25°C, pH 7.5
[7] = 30 μM TsaN^749−1008 titrated with 360 μM ligand
[8] = 30 μM TsaN^749−1008, 360 μM ligand, in the presence of 100 μM synthetic t^6A
[9] = other: 5 μM TsaN^1−392, varying ATP

Row | Molecule | K D [3, 7] | N (sites) [3, 7] | ΔG [3, 7] | ΔH [3, 7] | ΔG [4] | ΔH [4] | other results
1 | Pandoravirus salinus TsaN (TsaD-TsaC-SUA5-TcdA modular protein), full length (enzyme) |  |  |  |  |  |  | stoichiometry N [1]: 2; stoichiometry N [2]: 2
2 | Nc1ncnc2c1ncn2[C@@H]1O[C@H](CO)[C@@H](O)[C@H]1O [A, adenosine] | not able to determine the binding; also recorded: No binding | No binding | No binding | No binding | No binding | No binding | 
3 | TsaN^749-1008 (TcdA domain of P. salinus TsaN) (domain or fragment) |  |  |  |  |  |  | stoichiometry N [5]: 2
4 | [Cl][Mn][Cl] [MnCl2] |  |  |  |  |  |  | effect of divalent metal ion on catalytic activity of TsaN (t^6A/A) (TsaN): stimulated the catalytic activity
5 | Nc1ncnc2c1ncn2[C@@H]1O[C@H](COP(=O)(O)CP(=O)(O)OP(=O)(O)O)[C@@H](O)[C@H]1O [AMPCPP] |  |  |  |  |  |  | K D [3, 8]: not observed a binding signal; also recorded: No binding; N (sites) [3, 8]: No binding; ΔG [3, 8]: No binding; ΔH [3, 8]: No binding; ct^6A formation from synthetic t^6A in the presence of the nucleotide (ct^6A/t^6A) (TsaN^749−1008): not observed the formation of ct^6A
6 | Nc1ncnc2c1ncn2[C@@H]1O[C@H](COP(=O)(O)OP(=O)(O)O)[C@@H](O)[C@H]1O [ADP] | not able to determine the binding; also recorded: No binding | No binding | No binding | No binding | -7.05 kcal/mol | -2.74 ± 0.62 kcal/mol | ITC binding to AMP-bound TsaN^1-392 ([4]; 30 μM AMP-bound TsaN^1-392 titrated with 360 μM ADP, data not shown): no binding curves
7 | Nc1ncnc2c1ncn2[C@@H]1O[C@H](COP(=O)(O)OP(=O)(O)OP(=O)(O)O)[C@@H](O)[C@H]1O [ATP] | not able to determine the binding; also recorded: No binding | No binding | No binding | No binding |  |  | production of ADP in the ATPase assay (TsaN^H155A/H159A): not detected; K D (TsaN^(1−392)H155A/H159A): does not bind; also recorded: No binding; ct^6A formation from synthetic t^6A in the presence of the nucleotide (ct^6A/t^6A) (TsaN^749−1008): efficient conversion of t^6A to ct^6A; ATP hydrolysis (TsaN^749−1008; in the absence of synthetic t^6A, data not shown): not hydrolyzed
8 | Nc1ncnc2c1ncn2[C@@H]1O[C@H](CO[P@](=O)(O)O[P@](=O)(O)O[P@@](=O)(O)S)[C@@H](O)[C@H]1O [ATPγS] |  |  |  |  | -6.77 kcal/mol | -6.02 ± 2.38 kcal/mol | Kd [4]: 10.9 ± 8.91 µM
9 | Nc1ncnc2c1ncn2[C@@H]1O[C@H](COP(=O)(O)O)[C@@H](O)[C@H]1O [AMP] | not able to determine the binding; also recorded: No binding | No binding | No binding | No binding | -6.49 kcal/mol | -4.74 ± 1.46 kcal/mol | ct^6A formation from synthetic t^6A in the presence of the nucleotide (ct^6A/t^6A) (TsaN^749−1008): not observed the formation of ct^6A
10 | B1 |  |  |  |  |  |  | Km ([6]; other: 5 μM TsaN, varying ATP): 40 µM; Vmax ([6]; other: 5 μM TsaN, varying ATP): 0.015 µM/s
11 | B2 |  |  |  |  |  |  | Km [6, 9]: 40 µM; Vmax [6, 9]: 0.015 µM/s
